US8178506B2, “Oligomeric compounds and compositions for use in modulation of small non-coding RNAs” (Regulus Therapeutics Inc., priority 2003, dated 2012)
In the oligonucleotide strings, read from the 5' end, every base follows the letter of its sugar. An asterisk marks phosphorothioate; unmarked linkages are phosphodiester. Other units and linkages are bracketed, terminal groups are in braces. A string of capitals states the bases alone. e = 2'-O-(2-methoxyethyl) (MOE); [5mC] = 5-methylcytosine; d = 2'-deoxy (DNA)

system: T47D cells; assay: Caspase-3 activity assay (apoptosis) in T47D cells; settings: T47D cells, 200 nM oligomeric compound, 48 hours; experiment of Table 10

Substance	Fold Increase over UTC (caspase-3 activity, apoptosis) [fold]
328657 (eA*eA*eA*eA*eA*dT*dA*dA*dT*d[5mC]*dT*d[5mC]*dT*dG*d[5mC]*eA*e[5mC]*eA*eG*eG; antisense) [compound 328657]	0.8
328422 (antisense eG*eA*eG*eG*eA*dT*dG*dT*d[5mC]*dT*dG*dT*dG*dA*dA*eT*eA*eG*e[5mC]*e[5mC]) [compound 328422]	1.0
328395 (antisense e[5mC]*e[5mC]*e[5mC]*eA*eG*dT*dG*dG*dT*dG*dG*dG*dT*dG*dT*eG*eA*e[5mC]*e[5mC]*e[5mC]) [compound 328395]	1.0
328399 (antisense eA*eT*eG*eG*eG*dT*dA*d[5mC]*d[5mC]*dA*d[5mC]*d[5mC]*dA*dG*dA*eA*e[5mC]*eA*eT*eG) [compound 328399]	1.0
328425 (antisense eG*eA*e[5mC]*e[5mC]*eT*dG*d[5mC]*dT*dA*d[5mC]*dT*d[5mC]*dA*d[5mC]*dT*e[5mC]*eT*e[5mC]*eG*eT) [compound 328425]	0.8
328408 (antisense eT*eA*eG*eA*e[5mC]*dA*dA*dA*dA*dA*d[5mC]*dA*dG*dA*d[5mC]*eT*e[5mC]*eT*eG*eA) [compound 328408]	0.9

same assay, conditions: T47D cells, 200 nM oligomeric compound, 48 hours; experiment of Table 11

Substance	Fold Increase over UTC (caspase-3 activity, apoptosis) [fold]
328645 (eT*eG*e[5mC]*eT*e[5mC]*dA*dG*d[5mC]*d[5mC]*dA*dG*d[5mC]*d[5mC]*d[5mC]*d[5mC]*eA*eT*eT*e[5mC]*eT) [compound 328645]	2.2
328689 (eT*eA*e[5mC]*eA*eA*dT*dT*dT*dG*dG*dG*dA*dG*dT*d[5mC]*e[5mC]*eT*eG*eA*eA; antisense) [compound 328689]	0.8
328413 (antisense eA*eA*eT*eT*eG*dT*dA*dT*dG*dA*d[5mC]*dA*dT*dT*dA*eA*eA*eT*e[5mC]*eA) [compound 328413]	0.8

same assay, conditions: T47D cells, 200 nM oligomeric compound, 48 hours; experiment of Table 12

Substance	Fold Increase over UTC (caspase-3 activity, apoptosis) [fold]
328641 (eT*eG*e[5mC]*eT*eG*dA*d[5mC]*dT*dG*d[5mC]*dT*d[5mC]*dG*d[5mC]*d[5mC]*e[5mC]*eT*eT*eG*e[5mC]; antisense) [compound 328641]	1.1
328414 (antisense e[5mC]*eT*eT*e[5mC]*eA*dA*dG*dT*dG*d[5mC]*dA*dG*d[5mC]*d[5mC]*dG*eT*eA*eG*eG*e[5mC]) [compound 328414]	0.9
328373 (eG*eG*eG*eA*eA*dG*dG*dA*dT*dT*dG*d[5mC]*d[5mC]*dT*dA*eG*e[5mC]*eA*eG*eT; antisense) [compound 328373]	0.9
328387 (eT*eT*eA*eT*e[5mC]*dG*dG*dA*dA*d[5mC]*dT*dT*d[5mC]*dA*d[5mC]*eA*eG*eA*eG*eA; antisense) [compound 328387]	1.4

same assay, conditions: T47D cells, 200 nM, 48 hours, relative to untreated control

Substance	Fold Increase over UTC (caspase activity)
328392 (eG*eA*eT*eT*eG*d[5mC]*dA*d[5mC]*dA*dT*d[5mC]*d[5mC]*dA*d[5mC]*dA*e[5mC]*eT*eG*eT*e[5mC]; antisense) [compound 328392]	1.0
328656 (eT*eT*eT*e[5mC]*eA*dG*dG*d[5mC]*dT*d[5mC]*dA*d[5mC]*d[5mC]*dT*d[5mC]*e[5mC]*e[5mC]*e[5mC]*eA*eG; antisense) [compound 328656]	1.1
328692 (eT*eT*eG*eT*eA*dT*dG*dG*dA*d[5mC]*dA*dT*dT*dT*dA*eA*eA*eT*e[5mC]*eA; antisense) [compound 328692]	1.2

same assay, conditions: caspase assay, 200 nM; conclusion from Tables 9-12

Substance	apoptosis in T47D cells
AAAAATAATCTCTGCACAGG (antisense; same sequence listed as MOE 5-10-5 gapmer and as uniform MOE, further chemistry not given here) [ISIS 328657]	prevent or have a protective effect from apoptosis
SEQ ID NO 528: gapmer of Tables 9-12 having this SEQ ID NO (antisense eT*eG*eT*eT*eG*d[5mC]*d[5mC]*dT*dA*dA*d[5mC]*dG*dA*dA*d[5mC]*eA*e[5mC]*eA*eG*eA)	prevent or have a protective effect from apoptosis
ISIS 328371: 5-10-5 2′-MOE gapmer PS; targets mir-1d pri-miRNA (eT*e[5mC]*e[5mC]*eA*eT*dA*dG*d[5mC]*dT*dT*dA*dG*d[5mC]*dA*dG*eG*eT*e[5mC]*e[5mC]*eA)	induce apoptosis
SEQ ID NO 536: gapmer of Tables 9-12 having this SEQ ID NO (eG*eA*eT*eG*eT*d[5mC]*dA*d[5mC]*dT*dG*dA*dG*dG*dA*dA*eA*eT*e[5mC]*eA*e[5mC])	prevent or have a protective effect from apoptosis
TACAACGGCATTGTCCTGAA (antisense; same sequence listed as MOE 5-10-5 gapmer and as uniform MOE, further chemistry not given here) [ISIS 328655]	prevent or have a protective effect from apoptosis
SEQ ID NO 521: gapmer of Tables 9-12 having this SEQ ID NO (antisense eT*eT*eT*eA*e[5mC]*dT*d[5mC]*dA*dT*dA*d[5mC]*d[5mC]*dT*d[5mC]*dG*e[5mC]*eA*eA*e[5mC]*e[5mC])	induce apoptosis
SEQ ID NO 511: gapmer of Tables 9-12 having this SEQ ID NO (antisense eT*eT*eG*eA*eA*d[5mC]*dT*d[5mC]*d[5mC]*dA*dT*dG*d[5mC]*d[5mC]*dA*e[5mC]*eA*eA*eG*eG)	induce apoptosis
SEQ ID NO 543: gapmer of Tables 9-12 having this SEQ ID NO (e[5mC]*eG*e[5mC]*eA*eT*d[5mC]*dT*dT*dG*dA*d[5mC]*dT*dG*dT*dA*eG*e[5mC]*eA*eT*eG)	prevent or have a protective effect from apoptosis
AGAATGAGTTGACATACCAA (antisense; same sequence listed as MOE 5-10-5 gapmer and as uniform MOE, further chemistry not given here) [ISIS 328658]	induce apoptosis
SEQ ID NO 544: gapmer of Tables 9-12 having this SEQ ID NO (eT*e[5mC]*eT*eA*eA*dG*dG*dG*dG*dT*d[5mC]*dA*d[5mC]*dA*dG*eA*eA*eG*eG*eT)	induce apoptosis
SEQ ID NO 496: gapmer of Tables 9-12 having this SEQ ID NO (antisense eT*eT*eA*eT*e[5mC]*dG*dG*dA*dA*d[5mC]*dT*dT*d[5mC]*dA*d[5mC]*eA*eG*eA*eG*eA)	induce apoptosis
SEQ ID NO 483: gapmer of Tables 9-12 having this SEQ ID NO (antisense eA*eG*e[5mC]*eT*eT*dT*dA*dG*d[5mC]*dT*dG*dG*dG*dT*d[5mC]*eA*eG*eG*eA*e[5mC])	induce apoptosis
SEQ ID NO 516: gapmer of Tables 9-12 having this SEQ ID NO (antisense eA*eA*eT*eG*eG*dA*dG*d[5mC]*d[5mC]*dA*dA*dG*dG*dT*dG*e[5mC]*eT*eG*e[5mC]*e[5mC])	induce apoptosis
ISIS 328391: 5-10-5 2′-MOE gapmer PS; targets hypothetical miRNA-044 pri-miRNA (eA*eT*eG*eG*eT*dA*dA*dT*dT*dT*d[5mC]*dA*dT*dT*dT*e[5mC]*eA*eG*eG*e[5mC])	prevent or have a protective effect from apoptosis
TGCCATGAGATTCAACAGTC (2'-MOE gapmer, phosphorothioate, chemistry not fully specified) [ISIS 328415]	induce apoptosis
AATCCATTGAAGAGGCGATT (antisense; same sequence listed as MOE 5-10-5 gapmer and as uniform MOE, further chemistry not given here) [ISIS 328650]	prevent or have a protective effect from apoptosis
GGATTTAAACGGTAAACATC (antisense; same sequence listed as MOE 5-10-5 gapmer and as uniform MOE, further chemistry not given here) [ISIS 328695]	prevent or have a protective effect from apoptosis
TGCTGACTGCTCGCCCTTGC (antisense; same sequence listed as MOE 5-10-5 gapmer and as uniform MOE, further chemistry not given here) [ISIS 328641]	induce apoptosis
ISIS 328381: 5-10-5 2′-MOE gapmer PS; targets mir-214 pri-miRNA (eA*e[5mC]*eA*eG*eG*dT*dG*dA*dG*d[5mC]*dG*dG*dA*dT*dG*eT*eT*e[5mC]*eT*eG)	induce apoptosis
GCCTCCTTCATATATTCTCA (antisense; same sequence listed as MOE 5-10-5 gapmer and as uniform MOE, further chemistry not given here) [ISIS 328690]	prevent or have a protective effect from apoptosis
SEQ ID NO 510: gapmer of Tables 9-12 having this SEQ ID NO (antisense eG*e[5mC]*e[5mC]*e[5mC]*eT*d[5mC]*dG*dA*d[5mC]*dG*dA*dA*dA*dA*d[5mC]*e[5mC]*eG*eA*e[5mC]*eT)	prevent or have a protective effect from apoptosis
SEQ ID NO 534: gapmer of Tables 9-12 having this SEQ ID NO (antisense eG*eA*e[5mC]*e[5mC]*eT*dG*d[5mC]*dT*dA*d[5mC]*dT*d[5mC]*dA*d[5mC]*dT*e[5mC]*eT*e[5mC]*eG*eT)	prevent or have a protective effect from apoptosis
TGCTCAGCCAGCCCCATTCT (antisense; same sequence listed as MOE 5-10-5 gapmer and as uniform MOE, further chemistry not given here) [ISIS 328645]	induce apoptosis
